Data published in patent publication EP4717275A1, “ANTI-LUNG CANCER COMBINED DRUG AND USE THEREOF” (Gunagdong Yinzhu Pharmaceutical Technology Co., Ltd, priority 2023, dated 2024).
Where “and” joins values, the source holds several entries; their conditions need not be identical. Equal values may be shown once. Read-outs that look alike come from different tables or passages of the source. Marks after values point to notes of the source that are not given here.

Experiments:
[1] = assay type: in vivo; conditions: dead/total animals at Day 21; NCI-H1975 study; PO, QD×21
Experimental: (§1) BALB/c Nude mice, female, 8-10 weeks old, 18-20g. The variation of the body weight is ±20% around average body weight. 80 mice were inoculated and 60 mice were grouped.
(§2) The grouping day was designated as Day 0, and administration commenced according to animal body weight.
Animal body weight and tumor volume were measured twice weekly throughout the experiment. Tumor length and width were measured using a digital caliper, with tumor volume estimated from these measurements.
Clinical observations were recorded daily to assess overall health status, weight abnormalities, behavioral changes, and other treatment-related adverse reactions.
In accordance with animal welfare regulations, animals meeting any of the following criteria during the study were removed from the experimental group and euthanized: 1. Body weight loss exceeding 20% compared to Day 0 (BWL ≥ 20%); 2. Severe adverse reactions such as blindness or paralysis; 3. Tumor volume exceeding 2000 mm^3; 4.
The animal body weight change rate (%BWC) is calculated as: (BWt - BW0) / BW0 × 100%, where BWt is the animal body weight at each measurement and BW0 is the animal body weight at grouping.
According to China's NMPA Technical Guidance Principles for Non-clinical Studies of Cytotoxic Antineoplastic Drugs (November 2006), %T/CRTV ≤ 40% and statistically significant P < 0.05 indicate efficacy. Drug-related animal mortality exceeding 20% indicates severe toxicity at that dose.
All experimental data in this study are expressed as Mean ± SEM.

NCI-H2228 cell = experiment: CCK8 proliferation assay with combination index analysis; assay type: cell-based, human; conditions: CAI alone
Experimental: CCK8 method was used to evaluate the effect of the drugs towards proliferation of lung cancer cell line (NCI-H2228 cell). The cellular viability with different concentration of drug was assayed and the 50% inhibitory concentration was calculated.
Emerge NCI-H2228 cells (purchased from American Type Culture Collection (ATCC, Manassas, VA, USA)) from liquid nitrogen and thaw in a 37°C water bath. After thawing, culture cells in 1640 medium.
When cell density reached 90% confluence in culture medium, cells were digested with 0.25% trypsin and resuspended. After cell growth stabilized, cells in the logarithmic growth phase were harvested and counted using a cell counter and it was ensured that viability exceeded 85% for all cell lines.
Adjust cell concentration by diluting with culture medium. Add 100 µL of cell suspension to a 96-well plate to achieve a density of 3000 cells/well. Add 100 µL of PBS buffer to the wells around the cell-seeded wells.
Incubate the 96-well plate at 37°C, 5% CO2, and 95% humidity overnight.
Remove the cell culture plate from the incubator, aspirate the culture medium, and add the prepared drug-containing medium. Incubate at 37°C, 5% CO2, and 95% humidity for 72 hours.
Add 10 µL of CCK-8 solution to each well of the 96-well plate. Incubate the plate in the cell culture incubator for 1.5 hours. Measure the absorbance at 450 nm using a microplate reader.
Analyze data using GraphPad Prism 5.0 software. Fit the data using nonlinear S-curve regression to generate a dose-response curve and calculate the IC50 value. [formula]
The analysis of the combination index of the compound was performed using the median effect principle. The formula for the combination index of two compounds is: CI = (D)1/(Dx)1 + (D)2/(Dx)2 [formula]
Where: • (D)1---- The concentration of Compound 1 when compound 1 was used with another compound and the effect X was generated; • (D)2---- The concentration of Compound 2 when compound 2 was used with another compound and the effect X was generated; • (Dx)1---- The concentration of Compound 1 when compound 1 was used alone and the effect X was generated; • (Dx)2---- The concentration of Compound 2 when compound 2 was used alone and the effect X was generated.
The CI value enables quantitative assessment of the nature and strength of interactions between different compounds (Table 2). Interaction strength is measured using the weighted average CI (CIwt), calculated by the formula: CIwt = (CI50+2CI75+3CI90+4CI95)/10 [formula]
Where: • CI50 ---- CI value at EC50 (concentration achieving 50% effect) • CI75, CI90, and CI95 follow the same principle, representing the CI values at EC75, EC90, and EC95, respectively.
Evaluation of the combination effect: CI value is used to evaluate the combination effect, and the judgment method is shown in Table 7. Table 7 Judgment criteria of the results

[2] = test system: human lung cancer NCI-H2228 xenografts; experiment: Therapeutic effect in vivo on NCI-H2228 xenografts in nude mice; set-up: species or system BALB/c Nude mice; conditions: PO; for Relative tumor proliferation rate(%) Day 21: %T/CRTV; for Tumor growth inhibition rate(%) Day 21: %TGITV from tumor volume vs control; for Tumor growth inhibition rate(%) Day 21 / Tumor volume (mm^3,Mean±SEM) Day 21 / Relative tumor volume Day 21: QD× 21; for Tumor inhibition rate(%) Day 21: %TGITW from tumor weight vs control; for Tumor volume (mm^3,Mean±SEM) Day 21: QD×21, dose per group; for Relative tumor volume Day 21: RTV = Vt/V0, Mean ± SEM
Experimental: as §1
Table 9 Experimental design of therapeutic effect of the drugs in vivo
NCI-H2228 cells were cultured in RPMI 1640 medium supplemented with 10% FBS and maintained in a 37°C, 5% CO2 humidified incubator.
Log-phase NCI-H2228 cells were harvested, resuspended in RPMI 1640 basal medium containing 50% Matrigel, and adjusted to a concentration of 2 × 10^7 cells/mL. Under aseptic conditions, 0.1 mL of the cell suspension was injected subcutaneously into the right flank of mice at a concentration of 2 × 10^6 cells/0.1 mL/mouse.
When the mean tumor volume reached approximately 150 mm^3, animals were randomly grouped based on tumor volume, ensuring inter-group tumor volume variation was less than 10% of the mean.
as §2
The same as the therapeutic effect evaluation experiments for Examples 1-2 and Comparative Examples 1-3.

mouse melanoma = conditions: transplanted tumors, dexamethasone by intraperitoneal injection; cited from earlier work
[3] = QD×21, listed as Comparative Example 5
[4] = QD×21, listed as Comparative Example 6
[5] = QD×21, listed as Comparative Example 5, CAI, 20mg /kg
[6] = QD×21, listed as Comparative Example 6, CAI, 40mg /kg

Q: With `NC(=O)c1nnn(Cc2cc(Cl)c(C(=O)c3ccc(Cl)cc3)c(Cl)c2)c1N` [CAI, 5-Amino-1-[3,5-dichloro-4-(4-chlorobenzoyl chloride)benzyl]-1H-1,2,3-triazole-4-benzamide] as the molecule, how does the Fatality [1] read?
A: 0/10 (Day 21)

Q: What about the IC50 (NCI-H2228 cell; single plates 1-3, 72 hours, read-out: IC50 (CAI)) of the same molecule?
A: 22.9 µM and 23 µM

Q: And the IC50 (NCI-H2228 cell; Homo sapiens, NCI-H2228, 72 h, average of 3 plates, read-out: IC50 (CAI))?
A: 22.8 µM

Q: And the IC50 (NCI-H2228 cell; Homo sapiens, NCI-H2228, 72 h, single plates 1-3, read-out: IC50 (CAI))?
A: 22.4 µM

Q: What about the “Relative tumor proliferation rate(%) Day 21” value [2, 3] of the same molecule?
A: 69.94%

Q: What about the “Relative tumor proliferation rate(%) Day 21” value [2, 4] of the same molecule?
A: 68.46%

Q: And the “Tumor growth inhibition rate(%) Day 21” value [2, 5]?
A: 33.39%

Q: And the “Tumor growth inhibition rate(%) Day 21” value [2, 6]?
A: 34.01%

Q: What about the “Tumor inhibition rate(%) Day 21” value [2, 3] of the same molecule?
A: 39.40%

Q: And the “Tumor inhibition rate(%) Day 21” value [2, 4]?
A: 42.96%

Q: And the “Tumor volume (mm^3,Mean±SEM) Day 21” value ([2]; listed as Comparative Example 5, CAI, 20mg /kg)?
A: 979.25± 64.93* mm^3

Q: What about the “Tumor volume (mm^3,Mean±SEM) Day 21” value ([2]; listed as Comparative Example 6, CAI, 40mg /kg) of the same molecule?
A: 970.11± 102.46* mm^3

Q: And the “Tumor weight (g,Mean±SEM) Day 21” value [2, 3]?
A: 0.529 ± 0.055 g

Q: What about the “Tumor weight (g,Mean±SEM) Day 21” value [2, 4] of the same molecule?
A: 0.498 ± 0.059 g

Q: And the “Relative tumor volume Day 21” value [2, 5]?
A: 6.12±0.29

Q: What about the “Relative tumor volume Day 21” value [2, 6] of the same molecule?
A: 5.99±0.48

Q: What about the inhibition rate (mouse melanoma) of the same molecule?
A: 39.8%
